Patent US9133206B2, “Benzodiazepine and pyridodiazepine derivatives” (AbbVie Inc., priority 2010, dated 2015)

System: SK-N-SH human neuroblastoma cells
Assay: Serum Deprivation/JC-1 Mitochondrial Membrane Potential (MMP) Assay
Assay type: cell-based
Conditions: for EC50: serum deprivation ~18 hours, JC-1 ratio normalized to peak value for 10 μM dimebolin, single curve fit to mean data of n=2-3; for Emax / JC-1 max %: percent maximal intensity in JC-1 ratio normalized to peak value for 10 μM dimebolin, serum deprivation; for Emax: read-out: JC-1 max %
Description: The method also involves a high-throughput assay using serum-deprivation conditions involving neuronal cells to screen for compounds that increase or preserve mitochondrial membrane potential. Such compounds can be found to aid in rescuing cells from energy-depletion that occurs in several neurodegenerative states. Mitochondrial-mediated apoptosis occurs in response to a wide range of apoptotic stimuli including p^53, c-myc, DNA damage, prooxidants, chemotherapeutic agents, serum starvation and death receptor activation (Lin C—H., Lu Y-Z., Cheng, F-C., Chu L-F. and Hsuch C-M. Bax-regulated mitochondrial-mediated apoptosis is responsible for the in vitro ischemia induced neuronal cell death of Sprague Dawley rat. Neuroscience Lett. 2005, 387, 22-27).
Thus, this stress inducer, serum deprivation, combined with monitoring changes in the mitochondrial membrane potential in a 96-well format allows for the establishment of an efficient high-throughput screen (HTS) in order to evaluate the ability of compounds to increase mitochondrial membrane potential in the presence of stress and preserve health of the cell. Exemplary procedures for conducting such high-throughput assay are provided below.
SK-N-SH human neuroblastoma cells obtained from American Type Culture Collection (Rockville, Md.) were maintained in the log phase of growth in Minimal Essential Media (MEM), 10% heat inactivated fetal calf serum and 100 units/mL antibiotic-antimycotic (AA). Cells were cultured and maintained in a humidified incubator at 37° C. under 5% CO2 and 95% air. Cells were trypsinized (0.25%) and subcultured every 3 days and used from 15-18 passages. All cell culture supplies were obtained from Invitrogen (Carlsbad, Calif.).
SK-N-SH cells were plated 2-3 days in advance at a concentration of 50,000 cells/well onto collagen coated black-walled 96 well plates (Becton-Dickinson, Bedford, Mass.) in a total volume of […]. On day of experimental treatment, the media containing serum was aspirated from each well and rinsed once with MEM/1% AA without serum. The cells then were incubated overnight in 100 μL of MEM/1% AA (no serum) with and without dimebolin or novel chemical entities overnight for ˜18 hours. The following day, JC-1 dye (5,5′,6,6′-tetrachloro-1,1′,3,3′-tetraethylbenzimidazolcarbocyanide) was diluted 1:10 into MEM media according to the JC-1 Mitochondrial Membrane Potential Assay Kit: (Cayman Chemical Company, Ann Arbor, Mich.) and then 10 μL of the JC-1 dye solution was added to each well. The plates were centrifuged for 5 minutes at 400×g at room temperature followed by 40 minute incubation at 37° C. The plates were washed twice with 200 μL of provided Assay Buffer followed an addition of 100 μL of Assay Buffer to each well. The plates were read with an excitation and emission of 560 nm and 595 nM for red fluorescence and with an excitation and emission of 485 nm and 535 nM for green fluorescence to determine the final JC-1 value taking the red to green fluorescence ratio. This assay is based on change in mitochondrial membrane potential (MMP) using this lipophilic cationic dye, JC-1, by monitoring the changes in the ratio of red to green fluorescence as the MMP depolarizes. This change in MMP reflects the health of the cell with healthy, viable cells have a high JC-1 ratio and high MMP whereas apoptotic, unhealthy cells have a low JC-1 ratio or low MMP.
For the ability of compounds to reverse the stress due to serum deprivation and increase the JC-1 ratio, the percent maximal intensity in JC-1 ratio was normalized to that induced by the peak value for 10 μM dimebolin and plotted against the compound concentration to calculate EC50 values and to control for plate-to-plate variability. Concentration-response data were analyzed using GraphPad Prism (San Diego, Calif.); the EC50 values were derived from a single curve fit to the mean data of n=2-3, in duplicates. […]

| Structure (SMILES) | EC50 (Homo sapiens, SK-N-SH, 18 h) | Emax (Homo sapiens, SK-N-SH) | JC-1 max % | EC50 |
| --- | --- | --- | --- | --- |
| O=C([C@@H]1C[C@H]1c1ccccc1)N1Cc2ccccc2N2CCN(Cc3ccccc3)CC2C1 (relative stereo) [Example 15, (3-benzyl-1,2,3,4,4a,5-hexahydropyrazino[1,2-a][1,4]benzodiazepin-6(7H)-yl)[trans-2-phenylcyclopropyl]methanone] | 2.19 µM | 225% |  |  |
| Fc1ccc(CN2CCN3c4ccccc4CN(Cc4ccc(Br)cc4)C[C@H]3C2)cc1 (single isomer, unassigned) [Example 61] | 2.57 µM | 213% |  |  |
| Fc1ccc(CN2CCN3c4ccccc4CN(Cc4ccc(Br)cc4)C[C@@H]3C2)cc1 (single isomer, unassigned) [Example 62] | 3.65 µM | 161% |  |  |
| Brc1ccc(CN2Cc3ccccc3N3CCN(Cc4ccccc4)CC3C2)cc1 (single isomer, unassigned; (+)) [Example 19, (+)-3-benzyl-6-(4-bromobenzyl)-1,2,3,4,4a,5,6,7-octahydropyrazino[1,2-a][1,4]benzodiazepine] |  |  | 169% | 1.56 µM |
| Brc1ccc(CN2Cc3ccccc3N3CCN(Cc4ccccc4)CC3C2)cc1 (single isomer, unassigned; (-)) [Example 18, (−)-3-benzyl-6-(4-bromobenzyl)-1,2,3,4,4a,5,6,7-octahydropyrazino[1,2-a][1,4]benzodiazepine] |  |  | 178% | 2.72 µM |
| CC(C)(C)OC(=O)N1CCN2c3ccccc3CNC(=O)C2C1 (stereo not drawn) [Example 1, tert-butyl 5-oxo-1,2,4a,5,6,7-hexahydropyrazino[1,2-a][1,4]benzodiazepine-3(4H)-carboxylate] | 9.59 µM | 88% |  |  |
| c1ccc(CN2CCN3c4ccccc4CNCC3C2)cc1 (stereo not drawn) [Example 2, 3-benzyl-1,2,3,4,4a,5,6,7-octahydropyrazino[1,2-a][1,4]benzodiazepine] | 3.44 µM | 186% |  |  |
| Brc1ccc(CN2Cc3ccccc3N3CCN(Cc4ccccc4)CC3C2)cc1 (stereo not drawn) [Example 3, 3-benzyl-6-(4-bromobenzyl)-1,2,3,4,4a,5,6,7-octahydropyrazino[1,2-a][1,4]benzodiazepine] |  |  | 226% | 2.88 µM |
| O=C(Cc1ccccc1)N1Cc2ccccc2N2CCN(Cc3ccccc3)CC2C1 (stereo not drawn) [Example 4, 1-(3-benzyl-1,2,3,4,4a,5-hexahydropyrazino[1,2-a][1,4]benzodiazepin-6(7H)-yl)-2-phenylethanone] | 2.42 µM | 263% |  |  |
| O=C(c1ccccc1)N1Cc2ccccc2N2CCN(Cc3ccccc3)CC2C1 (stereo not drawn) [Example 5, (3-benzyl-1,2,3,4,4a,5-hexahydropyrazino[1,2-a][1,4]benzodiazepin-6(7H)-yl)(phenyl)methanone] | 6.7 µM | 57% |  |  |
| c1ccc(CN2CCN3c4ccccc4C[N+](Cc4ccccc4)(Cc4ccccc4)CC3C2)cc1 (stereo not drawn) [Example 6, 3,6,6-tribenzyl-1,2,3,4,4a,5,6,7-octahydropyrazino[1,2-a][1,4]benzodiazepin-6-ium] |  |  | 148% | 6.44 µM |
| c1ccc(CN2CCN3c4ccccc4CN(Cc4ccccc4)CC3C2)cc1 (stereo not drawn) [Example 7, 3,6-dibenzyl-1,2,3,4,4a,5,6,7-octahydropyrazino[1,2-a][1,4]benzodiazepine] | > 30 µM | 24% |  |  |
| CN1Cc2ccccc2N2CCN(Cc3ccccc3)CC2C1 (stereo not drawn) [Example 8, 3-benzyl-6-methyl-1,2,3,4,4a,5,6,7-octahydropyrazino[1,2-a][1,4]benzodiazepine] | 3.03 µM | 204% |  |  |
| c1ccc(CN2CCN3c4ccccc4CN(c4ncccn4)CC3C2)cc1 (stereo not drawn) [Example 9, 3-benzyl-6-(pyrimidin-2-yl)-1,2,3,4,4a,5,6,7-octahydropyrazino[1,2-a][1,4]benzodiazepine] | 2.59 µM | 158% |  |  |
| O=C(c1ccc(F)cc1)N1Cc2ccccc2N2CCN(Cc3ccccc3)CC2C1 (stereo not drawn) [Example 10, (3-benzyl-1,2,3,4,4a,5-hexahydropyrazino[1,2-a][1,4]benzodiazepin-6(7H)-yl)(4-fluorophenyl)methanone] | 2.74 µM | 248% |  |  |
| c1ccc(CN2CCN3c4ccccc4CN(c4cnccn4)CC3C2)cc1 (stereo not drawn) [Example 11, 3-benzyl-6-(pyrazin-2-yl)-1,2,3,4,4a,5,6,7-octahydropyrazino[1,2-a][1,4]benzodiazepine] | 5.61 µM | 122% |  |  |
| O=C(c1cnccn1)N1Cc2ccccc2N2CCN(Cc3ccccc3)CC2C1 (stereo not drawn) [Example 12, (3-benzyl-1,2,3,4,4a,5-hexahydropyrazino[1,2-a][1,4]benzodiazepin-6(7H)-yl)(pyrazin-2-yl)methanone] | 1.11 µM | 198% |  |  |
| O=C(N1Cc2ccccc2N2CCN(Cc3ccccc3)CC2C1)C1(c2ccccc2)CC1 (stereo not drawn) [Example 13, (3-benzyl-1,2,3,4,4a,5-hexahydropyrazino[1,2-a][1,4]benzodiazepin-6(7H)-yl)(1-phenylcyclopropyl)methanone] | 4.18 µM | 175% |  |  |
| O=C(N1CCOCC1)N1Cc2ccccc2N2CCN(Cc3ccccc3)CC2C1 (stereo not drawn) [Example 14, (3-benzyl-1,2,3,4,4a,5-hexahydropyrazino[1,2-a][1,4]benzodiazepin-6(7H)-yl)(morpholin-4-yl)methanone] | 0.754 µM | 203% |  |  |
| c1ccc(CN2CCN3c4ccccc4CN(c4ccccn4)CC3C2)cc1 (stereo not drawn) [Example 16, 3-benzyl-6-(pyridin-2-yl)-1,2,3,4,4a,5,6,7-octahydropyrazino[1,2-a][1,4]benzodiazepine] | 3.63 µM | 131% |  |  |
| Fc1ccc(CN2Cc3ccccc3N3CCN(Cc4ccccc4)CC3C2)cc1 (stereo not drawn) [Example 17, 3-benzyl-6-(4-fluorobenzyl)-1,2,3,4,4a,5,6,7-octahydropyrazino[1,2-a][1,4]benzodiazepine] | 4.48 µM | 183% |  |  |
| O=C(/C=C/c1ccccc1)N1Cc2ccccc2N2CCN(Cc3ccccc3)CC2C1 (stereo not drawn) [Example 20, (2E)-1-(3-benzyl-1,2,3,4,4a,5-hexahydropyrazino[1,2-a][1,4]benzodiazepin-6(7H)-yl)-3-phenylprop-2-en-1-one] | 5.47 µM | 133% |  |  |
| FC(F)(F)c1ccc(CN2Cc3ccccc3N3CCN(Cc4ccccc4)CC3C2)cc1 (stereo not drawn) [Example 21, 3-benzyl-6-[4-(trifluoromethyl)benzyl]-1,2,3,4,4a,5,6,7-octahydropyrazino[1,2-a][1,4]benzodiazepine] | 6.11 µM | 168% |  |  |
| CN1CCN2c3ccccc3N(Cc3ccc(Br)cc3)CCC2C1 (stereo not drawn) [Example 22, 7-(4-bromobenzyl)-3-methyl-1,2,3,4,4a,5,6,7-octahydropyrazino[1,2-a][1,5]benzodiazepine] | 2.95 µM | 173% |  |  |
| Fc1cc(CN2Cc3ccccc3N3CCN(Cc4ccccc4)CC3C2)ccc1Br (stereo not drawn) [Example 23, 3-benzyl-6-(4-bromo-3-fluorobenzyl)-1,2,3,4,4a,5,6,7-octahydropyrazino[1,2-a][1,4]benzodiazepine] | 5.72 µM | 238% |  |  |
| Fc1cc(F)cc(CN2Cc3ccccc3N3CCN(Cc4ccccc4)CC3C2)c1 (stereo not drawn) [Example 24, 3-benzyl-6-(3,5-difluorobenzyl)-1,2,3,4,4a,5,6,7-octahydropyrazino[1,2-a][1,4]benzodiazepine] | 4.77 µM | 166% |  |  |
| Fc1ccc(CN2Cc3ccccc3N3CCN(Cc4ccccc4)CC3C2)cc1F (stereo not drawn) [Example 25, 3-benzyl-6-(3,4-difluorobenzyl)-1,2,3,4,4a,5,6,7-octahydropyrazino[1,2-a][1,4]benzodiazepine] | 15.7 µM | 128% |  |  |
